# Measurements as given in patent publication US7939621B2, “Oligocarbonate molecular transporters” (International Business Machines Corporation, priority 2009, dated 2011).
# Experiments:
# Jurkat cells [1] = test: MTT toxicity assay; type: cell-based; conditions: Homo sapiens, 24 h with compound at 37° C., then 24 h fresh media
# Protocol: Jurkat cells grown in 10% FBS in RPMI media 1640 (+ glutamine) were plated at 5-10×10^4 cells/mL on a 96-well microtiter plate in the same media. In a second 96-well plate, compound was serially diluted in triplicate over 20 wells in columns 2-11 and rows 1-3 and 5-7; typical dilutions spanned the concentration range of 400 μM to 20 nM. Columns 1 and 12 contained no cells and no compound, respectively. Rows 4 and 8 contained a serial dilution of colchicine as internal control; colchicine concentrations were generally much lower than compound concentrations in order to obtain an EC50 (half-maximal effective concentration).
# Compounds were added to the plate containing cells and the cells were incubated at 37° C. for 24 h, at which point the plate was centrifuged, compound removed, and the cells resuspended in fresh media. […] Cells were incubated with MTT for 3 hours at 37° C., 150 μL solubilizing solution (10% triton X-100, 90% 0.1N HCl in isopropanol) was added to each well, and colorimetry data obtained on a plate reader.
# Numerical data from plate reader was standardized using values from columns 1 and 12 and curve fitting was performed using Graph Pad Prism software to obtain an EC50 for each compound.
# Jurkat cells [2] = test: Cellular uptake assay by flow cytometry; type: cell-based; conditions: 5, 12.5, 25 μM, pH 7.2 PBS, 5 min, 23° C.
# Protocol: Dansyl-tagged oligomers and octaarginine control were brought up in pH 7.2 PBS buffer at 5 μM, 12.5 μM, and 25 μM concentrations. […] Cells were plated on a microtiter plate at 3.0×10^6 cells/mL with 200 μL/well. The plate was centrifuged (1300 rpm for 3 min), media removed, and cells resuspended in PBS buffer twice.
# Compounds 6(a-c) and the r8 control at varying concentrations were incubated with the cells for 5 minutes at 23° C. The microtiter plates were centrifuged and the cells were isolated, washed with PBS and resuspended in PBS containing propidium iodide (3 μg/mL, 0.01%). The cells were analyzed using a fluorescent flow cytometer (Vantoo, Stanford University) equipped with a UV laser for excitation of the dansyl fluorophore, and cells stained with propidium iodide were excluded from the analysis. The data presented are the mean fluorescent signals for the 20,000 cells analyzed.
smiles,measurement,setting,value
"CN(C)c1cccc2c(S(=O)(=O)NCCO)cccc12 [Compound 4, 5-(dimethylamino)-N-(2-hydroxyethyl)naphthalene-1-sulfonamide, reference compound]",EC50,Jurkat cells [1],311 µM
same,Cellular uptake into Jurkat cells,Jurkat cells [2],does not enter Jurkat cells
